In ChEMBL document CHEMBL5537210, “Probing Isosteric Replacement for Immunoadjuvant Design: Bis-Aryl Triazole Trehalolipids are Mincle Agonists” (ACS Med Chem Lett, 2024) one finds Activity data, which are given here for seven compounds.

Holding throughout (type): functional, cell-based
Conditions in all cases: dose 0.1-1 nmol

In test [1] the test system is 2B4. As to the kind of experiment: Induction of NFAT-GFP signal in mouse 2B4 reporter cells expressing mMincle + FcRgamma at 0.1 to 1 nmol incubated for 18 hrs by flow cytometry analysis. For orientation: A flow cytometer gives signals particle by particle.
For test [2], the system named is BMDM. As to the kind of experiment: Induction of cytokine production in wild type C57BL/6 mouse BMDM cells assessed as IL-1beta secretion at 0.1 to 1 nmol incubated for 24 hrs by ELISA method. (In general: ELISA stands for enzyme-linked immunosorbent assay.)
The subject of test [3] is BMDM. Put plainly: Induction of cytokine production in wild type C57BL/6 mouse BMDM cells assessed as IL-6 secretion at 0.1 to 1 nmol incubated for 24 hrs by ELISA method.
Test [4] relates to BMDM. As to the kind of experiment: Induction of cytokine production in wild type C57BL/6 mouse BMDM cells assessed as IL-10 secretion at 0.1 to 1 nmol incubated for 24 hrs by ELISA method.

The structures appear in SMILES notation. Active and inactive are the calls of the source. The calls are words filed in the database; no cut-off is given here.

For the compound `CCCCCCCCOc1ccc(-c2cn(C[C@H]3O[C@H](O[C@H]4O[C@H](Cn5cc(-c6ccc(OCCCCCCCC)c(OCCCCCCCC)c6)nn5)[C@@H](O)[C@H](O)[C@H]4O)[C@H](O)[C@@H](O)[C@@H]3O)nn2)cc1OCCCCCCCC`, the result in test [1] was Active. For the same compound, the outcome in test [2], in test [3] and in test [4] was inactive.

In the case of `O[C@@H]1[C@@H](O)[C@@H](O[C@H]2O[C@H](Cn3cc(-c4ccccc4)nn3)[C@@H](O)[C@H](O)[C@H]2O)O[C@H](Cn2cc(-c3ccccc3)nn2)[C@H]1O`, in test [1], the outcome was inactive.

With `CCCCCCCCOc1cc(OCCCCCCCC)cc(-c2cn(C[C@H]3O[C@H](O[C@H]4O[C@H](Cn5cc(-c6cc(OCCCCCCCC)cc(OCCCCCCCC)c6)nn5)[C@@H](O)[C@H](O)[C@H]4O)[C@H](O)[C@@H](O)[C@@H]3O)nn2)c1`, the result in test [1], in test [3] and in test [4] was Active. Moreover, the outcome in test [2] was inactive.

Turning to `CCCCCCCCOc1ccc(-c2cn(C[C@H]3O[C@H](O[C@H]4O[C@H](Cn5cc(-c6ccc(OCCCCCCCC)cc6)nn5)[C@@H](O)[C@H](O)[C@H]4O)[C@H](O)[C@@H](O)[C@@H]3O)nn2)cc1`, in test [1], the outcome was Active.

Regarding `CCCCCCCCOc1cccc(-c2cn(C[C@H]3O[C@H](O[C@H]4O[C@H](Cn5cc(-c6cccc(OCCCCCCCC)c6OCCCCCCCC)nn5)[C@@H](O)[C@H](O)[C@H]4O)[C@H](O)[C@@H](O)[C@@H]3O)nn2)c1OCCCCCCCC`, the result in test [1], in test [2], in test [3] and in test [4] was Active.

Take `CCCCCCCCOc1ccc(-c2cn(C[C@H]3O[C@H](O[C@H]4O[C@H](Cn5cc(-c6ccc(OCCCCCCCC)cc6OCCCCCCCC)nn5)[C@@H](O)[C@H](O)[C@H]4O)[C@H](O)[C@@H](O)[C@@H]3O)nn2)c(OCCCCCCCC)c1`: the outcome in test [1], in test [2], in test [3] and in test [4] was Active.

For the compound `CCCCCCCCOc1ccccc1-c1cn(C[C@H]2O[C@H](O[C@H]3O[C@H](Cn4cc(-c5ccccc5OCCCCCCCC)nn4)[C@@H](O)[C@H](O)[C@H]3O)[C@H](O)[C@@H](O)[C@@H]2O)nn1`, in test [1], the outcome was Active.
